Results on 2 compounds are retold here after patent US20210252036A1, “METHODS OF TREATING CANCER BY INHIBITING UBIQUITIN CONJUGATING ENZYME E2 K (UBE2K)” (Berg LLC, priority 2018, published 2021).

Like-named read-outs stand apart in the source and are kept apart here.

One experiment deals with T1, UBE2K (Homo sapiens, UniProt P61086).
T1 sequence (P61086 1-200): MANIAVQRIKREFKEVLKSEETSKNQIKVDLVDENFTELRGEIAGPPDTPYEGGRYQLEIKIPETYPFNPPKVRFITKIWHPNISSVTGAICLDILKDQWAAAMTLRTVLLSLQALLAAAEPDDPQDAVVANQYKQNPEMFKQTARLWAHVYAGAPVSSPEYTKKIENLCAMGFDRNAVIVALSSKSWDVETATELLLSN
The note with it: Strickson et al., 2013; cited from earlier work.

The subject of a further experiment is T47D cells. As to the kind of experiment: Cell number/viability by Cell Titer Fluor after siRNA transfection. It is filed as cell-based. To be noted: Homo sapiens, doxorubicin 72 h. As to the method:
(§1) For initial validation studies, UBE2K was transiently knocked down using an siRNA mediated approach in Miapaca2, HepG2, SKHEP1, Hep3B, MDAMB231, SKBR3, T47D and BT549 cells. A non-targeting (NT) siRNA sequence was used as a control. Samples for confirmation of knock down at transcript and protein level were harvested 24 and 96 h post transfection, and the effect of UBE2K transient knock down was assessed on cell viability/cell number using Cell Titer Fluor at 96 h post transfection. In parallel, the effect of siRNA mediated UBE2K knock down on doxorubicin (cell death causing agent) sensitivity was assessed in the above mentioned cell lines. Cell were exposed to doxorubicin for 72 h beginning 24 h post transfection.

The test system of experiment [1] is SKHEP1 hepatocellular carcinoma cells. The experiment is described as above. It is filed as cell-based. To be noted: Homo sapiens, SK-HEP1, doxorubicin 72 h. As for the experimental part: as §1
The subject of another experiment is BT549 cells. Described as above. The class given is cell-based. To be noted: Homo sapiens, BT-549, doxorubicin 72 h. As to the method:
as §1

`Cc1ccc(S(=O)(=O)/C=C/C#N)cc1` [BAY 11-7082, (E)3-[(4-Methylphenyl)sulfonyl]-2-propenenitrile]: the “Loading of ubiquitin onto E2 conjugating enzymes such as UBE2K” value at UBE2K is reported as “inhibit the loading of ubiquitin onto E2 conjugating enzymes”.
As for `COc1cccc2c1C(=O)c1c(O)c3c(c(O)c1C2=O)C[C@@](O)(C(=O)CO)C[C@@H]3O[C@H]1C[C@H](N)[C@H](O)[C@H](C)O1` [doxorubicin], the IC50 in the experiment on T47D cells (UBE2K siRNA knockdown, read-out: UBE2K siRNA 95% CI IC50) was 0.0961 to 0.22 µM; in the experiment with T47D cells (control siRNA, read-out: Control siRNA 95% CI KSO), 0.112 to 0.29 µM; in experiment [1] (SKHEP1, UBE2K siRNA knockdown, read-out: UBE2K siRNA 95% CI IC50) it was 0.0101 to 0.0137 µM; in experiment [1] (SKHEP1, control siRNA, read-out: Control siRNA 95% CI KSO) it was 0.00858 to 0.0113 µM; in the experiment with BT549 cells (BT549, UBE2K siRNA knockdown, read-out: UBE2K siRNA 95% CI IC50), 0.0912 to 0.243 µM; in the experiment on BT549 cells (BT549, control siRNA, read-out: Control siRNA 95% CI KSO), 0.165 to 0.381 µM.
